Measured values as given in patent publication US20230181905A1, “Systems, Devices, and Methods for Enhancing the Neuroprotective Effects of Non-Invasive Gamma Stimulation with Pharmacological Agents” (Massachusetts Institute of Technology, priority 2021, published 2023).

Test system: amyloid
Assay: Amyloid immunohistochemistry in APP.PS1 mice
Type: in vivo, mouse
Settings: 11-month-old APP.PS1 mice
Description: 11-month-old APP.PS1 mice were either a) untreated as control, b) treated with GENUS alone (40 Hz light flicker delivered for 1 hour/day for 30 days), or c) a combination of GENUS (40 Hz delivered for 1 hour/day for 30 days) and levetiracetam (10 mg/kg body weight, intraperitoneal injection daily for 30 days), an agent shown to offer benefits in AD model mice. After the treatment mice were transcardially perfused with ice cold phosphate buffered saline (PBS) followed by 4% paraformaldehyde in PBS. Forty micron brain slices were prepared, and immunohistochemistry was then performed to evaluate the amyloid levels.

CC[C@@H](C(N)=O)N1CCCC1=O [levetiracetam]
amyloid levels in the visual cortex relative to treatment with GENUS alone (levetiracetam 10 mg/kg i.p. daily 30 days co-administered with GENUS): higher
effect of GENUS on amyloid levels (levetiracetam 10 mg/kg i.p. daily 30 days co-administered with GENUS 1 hour/day): dampened or attenuated
